Experimental data published in patent publication US20210115104A1, “AMYLIN ANALOGUES” (Zealand Pharma A/S, priority 2015, published 2021).
Like-named read-outs stand apart in the source and are kept apart here. *1 amine or outer side, *2 acyl side, *3 side chain or, on linkers, in order; H or OH if unused. Where a SMILES comes first, the peptide text is derived from it. Bridges are numbered along the chain shown (N, C = ends). [ ]: non-standard residue; d: D form. The star is where a group is joined. C20 diacid = O=C(O)CCCCCCCCCCCCCCCCCCC(=O)*; γGlu = O=C(O)[C@H](CCC(=O)[*:2])N[*:1]; NMeI = CC[C@H](C)[C@H](NC)C(=O)O; Sar = CNCC(=O)O

Legend:
[1] = molecular target: T1, human calcitonin receptor (hCTR2) (Homo sapiens, UniProt P30988); test: hCTR2 cAMP assay (AlphaScreen) in COS7 cells; format: cell-based; settings: cAMP induction, COS7 cells expressing hCTR2; Table 1; read-out: hCTR2 EC50
T1 construct: expressed in transfected cells
T1 sequence (P30988 25-474): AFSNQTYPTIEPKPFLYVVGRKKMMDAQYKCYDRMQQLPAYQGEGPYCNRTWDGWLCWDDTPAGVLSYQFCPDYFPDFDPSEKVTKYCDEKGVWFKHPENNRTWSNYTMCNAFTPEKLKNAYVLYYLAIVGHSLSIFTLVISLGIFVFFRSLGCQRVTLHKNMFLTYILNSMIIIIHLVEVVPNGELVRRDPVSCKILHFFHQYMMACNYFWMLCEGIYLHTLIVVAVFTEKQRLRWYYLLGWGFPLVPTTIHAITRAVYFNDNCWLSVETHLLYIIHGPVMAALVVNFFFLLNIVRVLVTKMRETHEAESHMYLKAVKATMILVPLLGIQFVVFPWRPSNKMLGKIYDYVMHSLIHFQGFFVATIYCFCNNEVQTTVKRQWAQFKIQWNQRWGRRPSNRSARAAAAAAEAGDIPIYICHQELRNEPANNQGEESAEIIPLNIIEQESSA
Outline: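 Stable hCTR2 clone in RAMP-naïve COS7 cells stimulated 15 min at 37 °C with increasing peptide concentrations in Tyrode buffer pH 7.4 containing IBMX and 0.1% casein. cAMP in lysates measured by AlphaScreen; EC50 from 4-parameter logistic fit.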

[2] = molecular target: T2, human amylin receptor 3 (hAMYR3), hCTR2 co-expressed with hRAMP3 (Homo sapiens, UniProt O60896+P30988); test: hAMYR3 cAMP assay (AlphaScreen) in COS7 cells; format: cell-based; settings: cAMP induction, COS7 cells expressing hAMYR3; Table 1; read-out: hAMYR3 EC50
T2 construct: expressed in transfected cells
T2 sequence (P30988 25-474): T1 sequence (P30988 25-474)
T2 sequence (O60896 24-148 partner): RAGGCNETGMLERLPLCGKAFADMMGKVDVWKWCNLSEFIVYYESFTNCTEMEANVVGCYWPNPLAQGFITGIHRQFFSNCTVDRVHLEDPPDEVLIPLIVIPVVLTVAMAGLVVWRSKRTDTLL
Outline: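 Stable COS7 clone co-expressing hCTR2 and hRAMP3 was exposed to increasing peptide concentrations in Tyrode buffer (pH 7.4) with 100 µM IBMX and 0.1% casein for 15 min at 37 °C. Lysate cAMP was measured by AlphaScreen; EC50 came from 4-parameter logistic fitting.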

[3] = Assessment of solubility (turbidity absorbance at 325 nm); format: physicochemical; settings: named as exception to solubility ≥1 mg/ml
Experimental: A stock solution of the test peptide (2 mg/ml; determined from the weighed amount of peptide) in demineralized water adjusted to pH 2.5 with HCl was prepared, and aliquots were diluted 1:1 in 100 mM acetate buffer (pH 4.0 and pH 5.0), 100 mM histidine buffer (pH 6.0 and pH 7.0) and 100 mM phosphate buffer (pH 6.0, pH 7.0 and pH7.5), respectively, and loaded in a standard flat-bottom, non-sterile 96-well UV Microplate. The absorbance of samples (single samples, n=1) at 280 and 325 nm was measured in an absorbance-based plate reader, which was preheated to ambient temperature (typically 25° C.). The turbidity absorbance criterion for a peptide solubility of ≥1 mg/ml was an absorbance at 325 nm of s 0.02 absorbance units (which is 5 to 6 times the standard deviation of 8 buffer samples in a plate).

## CC[C@H](C)[C@@H](C(=O)N[C@@H](CC(C)C)C(=O)N[C@@H](CO)C(=O)N[C@@H](CO)C(=O)N[C@H](C(=O)N[C@@H](CCC(=O)O)C(=O)N[C@H](C(=O)NCC(=O)N[C@@H](CO)C(=O)N[C@@H](CO)C(=O)N[C@H](C(=O)N1CCC[C@H]1C(N)=O)[C@@H](C)O)C(C)C)[C@@H](C)O)N(C)C(=O)[C@H](C)NC(=O)CN(C)C(=O)[C@H](Cc1ccccc1)NC(=O)[C@H](CO)NC(=O)[C@H](CO)NC(=O)[C@H](CCCNC(=N)N)NC(=O)[C@@H](NC(=O)[C@H](CC(C)C)NC(=O)[C@H](Cc1ccccc1)NC(=O)[C@H](Cc1c[nH]cn1)NC(=O)[C@H](C)NC(=O)[C@H](CC(C)C)NC(=O)[C@H](CCCNC(=N)N)NC(=O)[C@H](CCC(=O)O)NC(=O)[C@@H](NC(=O)[C@H](C)NC(=O)[C@@H]1CSSC[C@H](NC(=O)[C@H](CCCNC(=N)N)NC(=O)CC[C@H](NC(=O)CCCCCCCCCCCCCCCCCCC(=O)O)C(=O)O)C(=O)NCC(=O)N[C@@H]([C@@H](C)O)C(=O)N[C@@H](C)C(=O)N[C@@H]([C@@H](C)O)C(=O)N1)[C@@H](C)O)C(C)C [Compound 38, [19CD]-isoGlu-R-C( )-GTAT-C( )-ATERLAHFLVRSSF-Gly(Me)-A-Ile(Me)-LSSTEVGSSTP-NH2] ({C20 diacid-γGlu}-RCGTATCATERLAHFLVRSSF[Sar]A[NMeI]LSSTEVGSSTP-NH2; disulfide 2-7)
[1]
  EC50: 0.06 nM
[2]
  EC50: 0.12 nM
[3]; pH 6.0, read-out: solubility at pH 6.0
  solubility: < 1000 µg/mL
[3]; phosphate buffer, pH 7.5, read-out: solubility at pH 7.5
  solubility: < 1000 µg/mL
